Experimental data: patent US20160280699A1, “SUBSTITUTED PHENYLALANINE DERIVATIVES” (BAYER PHARMA AKTIENGESELLSCHAFT, priority 2013, published 2016)
Structures can show the parent of a compound that is named as a salt.

Columns and labels:
Assay type in all cases: biochemical
[1] = molecular target: T1, human factor XIa (Homo sapiens, UniProt P03951); assay: Measurement of FXIa inhibition (fluorogenic peptide substrate Boc-Glu(OBzl)-Ala-Arg-AMC); conditions: factor XIa from Kordia, 15 min preincubation, 30 min at 22° C., fluorescence
T1 construct: purchased Kordia

[2] = system: human and animal plasma; assay: Determination of anticoagulatory activity: activated partial thromboplastin time (aPTT) in plasma; conditions: concentration of test substance which brings about a 1.5-fold extension of the aPTT, 37° C., C.K. Prest kit
Summary of the method: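 Citrated human or animal plasma (e.g. mouse, rat, rabbit, pig, dog) preincubated 3 min at 37 °C with test substance and cephalin/kaolin PTT reagent. Value is the concentration giving a 1.5-fold aPTT extension.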

[3] = molecular target: T2, human plasmin (Homo sapiens, UniProt P00747); assay: Measurement of plasmin inhibition (fluorogenic peptide substrate MeOSuc-Ala-Phe-Lys-AMC); conditions: plasmin from Kordia, 15 min preincubation, 30 min at 22° C., fluorescence
T2 construct: purchased Kordia
Protocol: The plasmin inhibition of the inventive substances is determined using a biochemical test system which utilizes the reaction of a peptidic plasmin substrate to determine the enzymatic activity of human plasmin. Here, plasmin cleaves from the peptic plasmin substrate the C-terminal aminomethylcoumarin (AMC), the fluorescence of which is measured. The determinations are carried out in microtitre plates.
Test substances are dissolved in dimethyl sulphoxide and serially diluted in dimethyl sulphoxide (3000 μM to 0.0078 μM; resulting final concentrations in the test: 50 μM to 0.00013 μM). In each case 1 μl of the diluted substance solutions is placed into the wells of white microtitre plates from Greiner (384 wells). […] After 15 min of incubation, the enzyme reaction is started by addition of 20 μl of the plasmin substrate MeOSuc-Ala-Phe-Lys-AMC dissolved in assay buffer (150 μM in assay buffer) from Bachem, the mixture is incubated at room temperature (22° C.) for 30 min and fluorescence is then measured (excitation: 360 nm, emission: 460 nm). The measured emissions of the test batches with test substance are compared to those of control batches without test substance (only dimethyl sulphoxide instead of test substance in dimethyl sulphoxide), and IC50 values are calculated from the concentration/activity relationships.

T1 sequence (P03951 388-625 limits assumed): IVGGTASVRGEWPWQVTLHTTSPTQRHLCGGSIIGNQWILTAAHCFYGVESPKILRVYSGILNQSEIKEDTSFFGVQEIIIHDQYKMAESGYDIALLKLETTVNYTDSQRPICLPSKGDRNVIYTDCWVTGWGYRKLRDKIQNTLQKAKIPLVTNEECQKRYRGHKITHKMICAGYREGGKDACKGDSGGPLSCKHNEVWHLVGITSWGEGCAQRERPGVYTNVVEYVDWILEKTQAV
T1 sequence (P03951 19-387 partner limits assumed): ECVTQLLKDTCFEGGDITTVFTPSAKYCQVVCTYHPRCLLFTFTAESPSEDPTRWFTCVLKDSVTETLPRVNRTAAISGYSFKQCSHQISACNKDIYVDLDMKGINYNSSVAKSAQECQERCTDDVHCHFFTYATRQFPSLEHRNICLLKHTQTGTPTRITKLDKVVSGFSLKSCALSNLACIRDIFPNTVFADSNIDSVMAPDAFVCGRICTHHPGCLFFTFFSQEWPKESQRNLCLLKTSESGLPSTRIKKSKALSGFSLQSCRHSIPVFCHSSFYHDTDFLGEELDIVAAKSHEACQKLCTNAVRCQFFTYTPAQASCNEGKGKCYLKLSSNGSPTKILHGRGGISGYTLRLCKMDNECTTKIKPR
T2 sequence (P00747 581-810 limits assumed): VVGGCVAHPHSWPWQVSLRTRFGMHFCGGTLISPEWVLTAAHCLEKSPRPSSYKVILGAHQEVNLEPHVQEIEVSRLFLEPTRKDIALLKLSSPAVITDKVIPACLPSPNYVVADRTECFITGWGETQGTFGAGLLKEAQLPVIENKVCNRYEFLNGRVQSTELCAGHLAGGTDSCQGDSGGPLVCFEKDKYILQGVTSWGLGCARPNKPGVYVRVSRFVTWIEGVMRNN
T2 sequence (P00747 97-580 partner limits assumed): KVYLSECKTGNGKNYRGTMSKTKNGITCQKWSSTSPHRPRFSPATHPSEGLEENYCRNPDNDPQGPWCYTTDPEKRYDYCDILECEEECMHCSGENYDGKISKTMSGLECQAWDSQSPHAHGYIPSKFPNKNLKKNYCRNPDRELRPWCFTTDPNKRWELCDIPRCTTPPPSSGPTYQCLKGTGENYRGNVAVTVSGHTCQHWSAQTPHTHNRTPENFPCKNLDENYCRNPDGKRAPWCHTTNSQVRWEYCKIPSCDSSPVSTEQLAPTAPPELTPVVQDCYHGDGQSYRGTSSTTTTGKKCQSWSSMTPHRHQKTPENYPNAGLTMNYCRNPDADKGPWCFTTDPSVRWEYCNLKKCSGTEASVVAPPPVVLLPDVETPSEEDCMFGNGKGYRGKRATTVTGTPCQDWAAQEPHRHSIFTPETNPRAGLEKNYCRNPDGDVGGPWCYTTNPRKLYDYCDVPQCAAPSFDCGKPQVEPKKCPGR

CC1CN(c2ccc(-c3ccc(C[C@H](NC(=O)C4CCC(CN)CC4)C(=O)Nc4ccc(-c5nn[nH]n5)cc4)cc3)cn2)CC(C)O1 (mixture of isomers) [Example 9, N-alpha-{[trans-4-(Aminomethyl)cyclohexyl]carbonyl}-4-{6-[(2RS,6SR)-2,6-dimethylmorpholin-4-yl]pyridin-3-yl}-N-[4-(2H-tetrazol-5-yl)phenyl]-L-phenylalaninamide hydrochloride]
IC50 [1]: 3.6 nM
aPTT [2]: 0.35 µmol/L
IC50 [3]: 14 nM

CN(C)CCCOc1ccc(-c2ccc(C[C@H](NC(=O)C3CCC(CN)CC3)C(=O)Nc3ccc(-c4nnc(Cl)[nH]4)cc3)cc2)cn1 (stereo partly drawn) [Example 56, N-alpha-{[trans-4-(Aminomethyl)cyclohexyl]carbonyl}-N-[4-(3-chloro-4H-1,2,4-triazol-5-yl)phenyl]-4-{6-[3-(dimethylamino)propoxy]pyridin-3-yl}-L-phenylalaninamide hydrochloride]
IC50 [1]: 9.6 nM
aPTT [2]: 0.25 µmol/L

Cc1ccncc1-c1ccc(C[C@H](NC(=O)C2CCC(CN)CC2)C(=O)Nc2ccc(-c3nn[nH]n3)cc2)cc1 (stereo partly drawn) [Example 57, N-alpha-{[trans-4-(Aminomethyl)cyclohexyl]carbonyl}-4-(4-methylpyridin-3-yl)-N-[4-(2H-tetrazol-5-yl)phenyl]-L-phenylalaninamide hydrochloride]
IC50 [1]: 4.4 nM
aPTT [2]: 0.35 µmol/L

CCOC(=O)c1ccc(-c2ccc(C[C@H](NC(=O)[C@H]3CC[C@H](CN)CC3)C(=O)Nc3ccc(-c4nn[nH]n4)cc3)cc2)c(C)n1 [Example 58, Ethyl 5-{4-[(2S)-2-({[trans-4-(aminomethyl)cyclohexyl]carbonyl}amino)-3-oxo-3-{[4-(2H-tetrazol-5-yl)phenyl]amino}propyl]phenyl}-6-methylpyridin-2-carboxylate hydrochloride]
IC50 [1]: 0.8 nM
aPTT [2]: 0.34 µmol/L
IC50 [3]: 8.6 nM

Cl.NC[C@H]1CC[C@H](C(=O)N[C@@H](Cc2ccc(-c3cnc(N4CCOCC4)nc3)cc2)C(=O)Nc2ccc(-c3nc(C(F)(F)C(F)(F)C(=O)O)n[nH]3)cc2)CC1 [Example 59, 3-(5-{4-[(N-{[trans-4-(Aminomethyl)cyclohexyl]carbonyl}-4-[2-(morpholin-4-yl)pyrimidin-5-yl]-L-phenylalanyl)amino]phenyl}-1H-1,2,4-triazol-3-yl)-2,2,3,3-tetrafluoropropanoic acid hydrochloride]
IC50 [1]: 2.6 nM
aPTT [2]: 0.08 µmol/L
